The subject of assay [1] is human normal liver (L02) cells. The assay is described as follows: MTT assay on normal cell line L02. The settings on record: 48 h, MTT; for % Growth Inhibition at 100 μM L02 / inhibition at 100 µM: normal cells; for IC50: normal cell line; for inhibition at 100 µM: read-out: % Growth Inhibition at 100 μM L02. In kind it is cell-based. On the technique in general: Tetrazolium assays rely on reduction of a dye to a coloured formazan, in cell work by metabolically active cells.

Assay [2] concerns A549. The experiment in a line: MTT antiproliferative assay, A549. The conditions noted are these: 48 h, MTT; for inhibition at 100 µM: read-out: % Growth Inhibition at 100 μM A549. Type of assay: cell-based, human. As for the experimental part: (§1) The antiproliferative activity of the title compounds against the panel of six different human cancer cell lines, viz. lung (A549), cervix (HeLa), liver (HepG-2), liver (BEL7402), colorectal (HCT116), and breast (MCF-7) cell lines, was evaluated using a standard MTT-based colorimetric assay. All cell lines were obtained from the Key Laboratory of Natural Resources and Functional Molecules of the Changbai Mountain (Yanbian University) and maintained in Dulbecco’s modified Eagle’s medium (DMEM) and RPMI Media 1640 (RPMI1640), supplemented with 10% foetal bovine serum (FBS) at 37 °C in a humidified atmosphere containing 5% CO2.
(§2) Cells were plated in 96-well plates at appropriate densities to ensure exponential growth throughout the experimental period (9 × 10^3 cells per well), and then allowed to adhere for 24 h. Cells were then treated for 48 h with each compound. After 48 h of incubation, 10 μL of MTT solution were added to each well to a final concentration of 2 mg·mL^−1. Plates were then incubated for a further 4 h. After incubation, the MTT solution was removed and 150 μL of DMSO were added to each well for coloration. The plates were shaken vigorously for 10 min at room temperature to ensure complete solubilisation. The optometric density (OD) was read on a microplate reader (EL × 800, BioTek, Highland Park, Winooski, VT, USA) at 492 nm, and the data were subsequently analysed. The percentage of cell growth inhibition was calculated from the following equation:Inhibitory rate (%) = [1 − (ODtreated − ODblank)/(ODcontrol − ODblank)] × 100.
(§3) To obtain the antiproliferative activity of compounds 2a–2w, the compounds were selected in the same way with four serial concentrations (1, 10, 50 and 100 μM) of those compounds. The optometric density (OD) reading was then used to calculate the IC50.

Assay [3] relates to HepG-2. The experiment in a line: MTT antiproliferative assay, HepG-2. The conditions noted are these: 48 h, MTT; for inhibition at 100 µM: read-out: % Growth Inhibition at 100 μM HepG-2. In kind it is cell-based, human. Here is the method: as §1, §2, §3
In assay [4] the test system is HCT116. The assay is described as follows: MTT antiproliferative assay, HCT116. The conditions noted are these: 48 h, MTT; for inhibition at 100 µM: read-out: % Growth Inhibition at 100 μM HCT116. Type of assay: cell-based, human. As for the experimental part: as §1, §2, §3
For assay [5], the system named is Hela. The experiment in a line: MTT antiproliferative assay, Hela. In kind it is cell-based, human. The settings on record: 48 h, MTT; for inhibition at 100 µM: read-out: % Growth Inhibition at 100 μM Hela. As for the experimental part:
as §1, §2, §3

In assay [6] the test system is MCF-7. The assay is described as follows: MTT antiproliferative assay, MCF-7. In kind it is cell-based, human. The conditions noted are these: 48 h, MTT; for inhibition at 100 µM: read-out: % Growth Inhibition at 100 μM MCF-7. As for the experimental part:
as §1, §2, §3

Assay [7] relates to BEL7402. The assay is described as follows: MTT antiproliferative assay, BEL7402. The settings on record: 48 h, MTT; for inhibition at 100 µM: read-out: % Growth Inhibition at 100 μM BEL7402. Type of assay: cell-based, human. Here is the method: as §1, §2, §3

Results on eight molecules are retold here after publication PMC6225165, “Design and Synthesis of Novel Dehydroepiandrosterone Analogues as Potent Antiproliferative Agents” (Molecules : A Journal of Synthetic Chemistry and Natural …, 2018).

Turning to `CC12CCC3C(CC=C4CC(O)CCC43C)C1C/C(=C\c1cn(-c3ccccc3Br)nn1)C2=O` (stereo not shown) [Compound 2i, (E)-16-((1-(2-bromophenyl)-1H-1,2,3-triazol-4-yl)methylene)-3-hydroxy-10,13-dimethyl-1,3,4,7,8,9,10,11,12,13,15,16-dodecahydro-2H-cyclopenta[a]phenan-thren-17(14H)-one], the “% Growth Inhibition at 100 μM L02” value in assay [1] is recorded as “NA (NA: antiproliferative activity <5%)”. Further, in assay [2], the “% Growth Inhibition at 100 μM A549” value is recorded as “NA (NA: antiproliferative activity <5%)”. The “% Growth Inhibition at 100 μM HepG-2” value in assay [3] is “NA (NA: antiproliferative activity <5%)”. In addition, in assay [4], the “% Growth Inhibition at 100 μM HCT116” value worked out at 20.2%. For the same molecule, the “% Growth Inhibition at 100 μM Hela” value in assay [5] is 17.0%. The “% Growth Inhibition at 100 μM MCF-7” value in assay [6] is “NA (NA: antiproliferative activity <5%)”. In addition, in assay [7], the “% Growth Inhibition at 100 μM BEL7402” value is “NA (NA: antiproliferative activity <5%)”.

Take `CC12CCC3C(CC=C4CC(O)CCC43C)C1C/C(=C\c1cn(-c3cccc(Br)c3)nn1)C2=O` (stereo not shown) [Compound 2j, (E)-16-((1-(3-bromophenyl)-1H-1,2,3-triazol-4-yl)methylene)-3-hydroxy-10,13-dimethyl-1,3,4,7,8,9,10,11,12,13,15,16-dodecahydro-2H-cyclopenta[a]phenan-thren-17(14H)-one]: the “% Growth Inhibition at 100 μM L02” value in assay [1] is 43.8%. In assay [2], the “% Growth Inhibition at 100 μM A549” value was “NA (NA: antiproliferative activity <5%)”. Moreover, the “% Growth Inhibition at 100 μM HepG-2” value in assay [3] came out at 10.8%. In addition, in assay [4], the “% Growth Inhibition at 100 μM HCT116” value was 42.0%. Further, the “% Growth Inhibition at 100 μM Hela” value in assay [5] came to 20.5%. Also, the “% Growth Inhibition at 100 μM MCF-7” value in assay [6] is recorded as 42.1%. The “% Growth Inhibition at 100 μM BEL7402” value in assay [7] is 37.6%.

For orientation: IC50 means the concentration that gives 50% inhibition. Higher therefore signals a need for much substance. As to `CC12CCC3C(CC=C4CC(O)CCC43C)C1C/C(=C\c1cn(-c3ccc(Br)cc3)nn1)C2=O` (stereo not shown) [Compound 2k, (E)-16-((1-(4-bromophenyl)-1H-1,2,3-triazol-4-yl)methylene)-3-hydroxy-10,13-di-methyl-1,3,4,7,8,9,10,11,12,13,15,16-dodecahydro-2H-cyclopenta[a]phenan-thren-17(14H)-one], in assay [1], the “% Growth Inhibition at 100 μM L02” value was 11.1% and the IC50 was more than 100 µM. Further, in assay [2], the “% Growth Inhibition at 100 μM A549” value came out at 47.8% and the IC50 was more than 100 µM. In addition, in assay [3], the “% Growth Inhibition at 100 μM HepG-2” value is recorded as 66.4% and it took 37.1 µM to reach half-maximal inhibition (IC50). Moreover, in assay [4], the “% Growth Inhibition at 100 μM HCT116” value is on record as “NA (NA: antiproliferative activity <5%)” and the IC50 is more than 100 µM. Besides, in assay [5], the “% Growth Inhibition at 100 μM Hela” value was 30.7% and the IC50 is more than 100 µM. Also, in assay [6], the “% Growth Inhibition at 100 μM MCF-7” value is given as 45.5% and the IC50 is more than 100 µM. In assay [7], the “% Growth Inhibition at 100 μM BEL7402” value was “NA (NA: antiproliferative activity <5%)” and the IC50 is more than 100 µM.

`CC12CCC3C(CC=C4CC(O)CCC43C)C1C/C(=C\c1cn(-c3ccccc3I)nn1)C2=O` (stereo not shown) [Compound 2l, (E)-3-hydroxy-16-((1-(2-iodophenyl)-1H-1,2,3-triazol-4-yl)methylene)-10,13-dim-ethyl-1,3,4,7,8,9,10,11,12,13,15,16-dodecahydro-2H-cyclopenta[a]phenanthren-17(14H)-one]: the “% Growth Inhibition at 100 μM L02” value in assay [1] is “NA (NA: antiproliferative activity <5%)”. Further, the “% Growth Inhibition at 100 μM A549” value in assay [2] is “NA (NA: antiproliferative activity <5%)”. In assay [3], the “% Growth Inhibition at 100 μM HepG-2” value is “NA (NA: antiproliferative activity <5%)”. For the same molecule, the “% Growth Inhibition at 100 μM HCT116” value in assay [4] is on record as “NA (NA: antiproliferative activity <5%)”. In addition, in assay [5], the “% Growth Inhibition at 100 μM Hela” value is on record as “NA (NA: antiproliferative activity <5%)”. Besides, the “% Growth Inhibition at 100 μM MCF-7” value in assay [6] is reported as “NA (NA: antiproliferative activity <5%)”. For the same molecule, the “% Growth Inhibition at 100 μM BEL7402” value in assay [7] was “NA (NA: antiproliferative activity <5%)”.

As for `CC12CCC3C(CC=C4CC(O)CCC43C)C1C/C(=C\c1cn(-c3cccc(I)c3)nn1)C2=O` (stereo not shown) [Compound 2m, (E)-3-hydroxy-16-((1-(3-iodophenyl)-1H-1,2,3-triazol-4-yl)methylene)-10,13-dim-ethyl-1,3,4,7,8,9,10,11,12,13,15,16-dodecahydro-2H-cyclopenta[a]phenanthren-17(14H)-one], in assay [1], the “% Growth Inhibition at 100 μM L02” value was “NA (NA: antiproliferative activity <5%)”. In addition, in assay [2], the “% Growth Inhibition at 100 μM A549” value was “NA (NA: antiproliferative activity <5%)”. Besides, the “% Growth Inhibition at 100 μM HepG-2” value in assay [3] is “NA (NA: antiproliferative activity <5%)”. Moreover, the “% Growth Inhibition at 100 μM HCT116” value in assay [4] amounted to 7.6%. Further, in assay [5], the “% Growth Inhibition at 100 μM Hela” value is on record as “NA (NA: antiproliferative activity <5%)”. Moreover, the “% Growth Inhibition at 100 μM MCF-7” value in assay [6] is listed as “NA (NA: antiproliferative activity <5%)”. In addition, the “% Growth Inhibition at 100 μM BEL7402” value in assay [7] was found to be 14.1%.

What is called inhibition is the drop in the measured response relative to a control, in per cent. For the molecule `Cc1cccc(-n2cc(/C=C3\CC4C5CC=C6CC(O)CCC6(C)C5CCC4(C)C3=O)nn2)c1` (stereo not shown) [Compound 2o, (E)-3-hydroxy-10,13-dimethyl-16-((1-m-tolyl-1H-1,2,3-triazol-4-yl)methylene)-1,3,4,7,8,9,10,11,12,13,15,16-dodecahydro-2H-cyclopenta[a]phenanthren-17(14H)-one], the inhibition at 100 µM is 40.1% in assay [1] (Homo sapiens, L02); less than 5% in assay [2] (Homo sapiens, A549); 12.8% in assay [3] (Homo sapiens, HepG2); 40.9% in assay [4] (Homo sapiens, HCT-116); 12.7% in assay [5] (Homo sapiens); 11.2% in assay [6] (Homo sapiens, MCF7). The inhibition at 100 µM in assay [7] (Homo sapiens, Bel-7402) is 30.5%.

For the molecule `Cc1ccc(-n2cc(/C=C3\CC4C5CC=C6CC(O)CCC6(C)C5CCC4(C)C3=O)nn2)cc1` (stereo not shown) [Compound 2p, (E)-3-hydroxy-10,13-dimethyl-16-((1-p-tolyl-1H-1,2,3-triazol-4-yl)methylene)-1,3,4,7,8,9,10,11,12,13,15,16-dodecahydro-2H-cyclopenta[a]phenanthren-17(14H)-one], the inhibition at 100 µM was 67.1% in assay [1] (Homo sapiens, L02); 63.1% in assay [2] (Homo sapiens, A549); 76% in assay [3] (Homo sapiens, HepG2); 76.5% in assay [4] (Homo sapiens, HCT-116); 64.6% in assay [5] (Homo sapiens); 21.7% in assay [6] (Homo sapiens, MCF7). In assay [7] (Homo sapiens, Bel-7402), the inhibition at 100 µM is 23.7%. Moreover, the 50% inhibitory concentration (IC50) in assay [1] (Homo sapiens, L02) is 62.2 µM; in assay [2] (Homo sapiens, A549), 56.7 µM; in assay [3] (Homo sapiens, HepG2) it was 18.9 µM; in assay [4] (Homo sapiens, HCT-116) it was 44.1 µM; in assay [5] (Homo sapiens, HeLa), 62.4 µM; in assay [6] (Homo sapiens, MCF7), more than 100 µM. Moreover, the IC50 in assay [7] (Homo sapiens, Bel-7402) was more than 100 µM.

Regarding `COc1ccccc1-n1cc(/C=C2\CC3C4CC=C5CC(O)CCC5(C)C4CCC3(C)C2=O)nn1` (stereo not shown) [Compound 2q, (E)-3-hydroxy-16-((1-(2-methoxyphenyl)-1H-1,2,3-triazol-4-yl)methylene)-10,13-dimethyl-1,3,4,7,8,9,10,11,12,13,15,16-dodecahydro-2H-cyclopenta[a]phenan-thren-17(14H)-one], the “% Growth Inhibition at 100 μM L02” value in assay [1] is reported as “NA (NA: antiproliferative activity <5%)”. Also, the “% Growth Inhibition at 100 μM A549” value in assay [2] turned out to be 7.6%. In addition, the “% Growth Inhibition at 100 μM HepG-2” value in assay [3] is on record as “NA (NA: antiproliferative activity <5%)”. For the same molecule, the “% Growth Inhibition at 100 μM HCT116” value in assay [4] came to 14.3%. Also, in assay [5], the “% Growth Inhibition at 100 μM Hela” value was “NA (NA: antiproliferative activity <5%)”. The “% Growth Inhibition at 100 μM MCF-7” value in assay [6] is given as 34.6%. Also, the “% Growth Inhibition at 100 μM BEL7402” value in assay [7] is 10.0%.
